# Results published in PubChem BioAssay (NCI).
#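 Step 1: Grow cells in 96-well plates. Step 2: Expose to compound for 48 hours at 5 concentrations. Step 3: Interpolate endpoints linearly; if unreached, use highest concentration. GI50: concentration for 50% inhibition of growth. TGI denotes the concentration required for complete inhibition of growth.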
# What was measured:
# Test in all cases: NCI tumour cell line growth inhibition, 48 h
# [1] = test system: HCC-2998 colon
# [2] = test system: BT-549 breast
# [3] = test system: HS 578T breast
# [4] = test system: SN12C renal
# [5] = test system: MDA-MB-435
# [6] = test system: NCI-H522 lung
# [7] = test system: CCRF-CEM leukemia
# [8] = test system: UACC-257 melanoma
# [9] = test system: NCI-H226 lung
# [10] = test system: SF-295 CNS
SMILES,GI50 [1],TGI [1],GI50 [2],TGI [2],GI50 [3],TGI [3],GI50 [4],TGI [4],GI50 [5],TGI [5],GI50 [6],TGI [6],GI50 [7],TGI [7],GI50 [8],TGI [8],GI50 [9],TGI [9],GI50 [10],TGI [10]
O=c1[nH]cnc2c1nnn2C1OC(CO)C(O)C1O (stereo not given),2.65 µM,24.5 µM,7.77 µM,> 100 µM,4.27 µM,69.8 µM,6.57 µM,> 100 µM,3.51 µM,> 100 µM,1.48 µM,14 µM,0.551 µM,> 28 µM,12.3 µM,> 100 µM,4.88 µM,> 100 µM,1.71 µM,> 65.7 µM
OCCCCC#Cc1ccccc1C#Cc1ccccc1F,17.8 µM,33 µM,21.7 µM,52.7 µM,27.5 µM,71.9 µM,18.1 µM,40.4 µM,18.9 µM,37.2 µM,16.3 µM,32.6 µM,24.6 µM,48.7 µM,18.9 µM,39.2 µM,24 µM,49.8 µM,21.6 µM,42.7 µM
COc1ccc(Nc2ncccc2/C=C/C(=O)c2cc(OC)c(OC)c(OC)c2)cc1,1.68 µM,3.09 µM,1.58 µM,3.08 µM,2.68 µM,9.6 µM,1.56 µM,3.44 µM,1.46 µM,3.36 µM,0.36 µM,1.64 µM,0.5 µM,> 100 µM,1.53 µM,2.92 µM,1.37 µM,2.81 µM,1.85 µM,5.59 µM
